Results reported in patent publication US20260306494A1, “LIQUID AND SOLID COMPOSITIONS OF IMIPRIDONE DERIVATIVES” (INSTITUT GUSTAVE ROUSSY, priority 2023, published 2026).
Each block holds one compound with its values, some of them ahead of it.

Legend:
[1] = in vivo; cited from earlier work
[2] = system: recurrent H3K28M DMG; conditions: human, in vivo; cited from earlier work
[3] = physchem; conditions: water, solubility in water

Compound: NC(=O)c1cccnc1 [Nicotinamide]
NOAEL (No Observed Adverse Effect Level) [1]: around 200 mg/kg bw

Compound: Cc1ccccc1CN1C(=O)C2=C(CCN(Cc3ccccc3)C2)N2CCN=C12 [ONC201, 7-Benzyl-4-(2-methylbenzyl)-1,2,6,7,8,9-hexahydroimidazo[1,2-a]pyrido[3,4-e]pyrimidin-5 (4H)-one]
response of patients [2]: sustained response

solubility [3]: 41.4 mg/mL
Compound: Cc1ccccc1CN1C(=O)C2=C(CCN(Cc3ccccc3)C2)N2CCN=C12 [ONC201.2HCl]
